Measurements from patent publication US20100003712A1, “BIOMARKER FOR ASSESSING RESPONSE TO CHYMASE TREATMENT” (priority 2008, published 2010).

Columns and labels:
IL-18 levels in saliva = experiment: IL-18 levels in human saliva after 14 days of dosing; type: in vivo; conditions: human subjects
Description: To examine the dose effects of COMPOUND NO. 1 on the IL-18 levels, subjects were treated with 0, 100, 600 mg of COMPOUND NO. 1 for 14 days and the saliva samples were collected. IL-18 levels in the samples were measured by ELISA as described above. […] 1 at 600 mg as compared to the placebo group (FIG. 8). The IL-18 levels were similar in the placebo group and the subjects treated with COMPOUND NO. 1 at 100 mg.

other serine proteases = conditions: cited from earlier work
[1] = target: T1, recombinant human chymase (Homo sapiens, UniProt P23946); experiment: reversal of chymase-induced decrease of IL-18 levels in human saliva (ELISA); type: biochemical; conditions: 37° C.; for dose-dependent reversal of chymase-induced decrease of IL-18 levels: 0-10,000 nM compound, human saliva; for dose-dependent reversal of chymase-induced decrease of IL-18 levels / IC50: 80 nM chymase, 1 hr; for IC50: n=3, ELISA, read-out: IC50 for reversal of chymase-induced IL-18 reduction; for reversal of chymase-induced reduction of IL-18 levels: chymase 2 μg/ml, COMPOUND No. 3 1 μM or chymostatin 3 μg/ml, 1 h
T1 construct: made in house
T1 sequence (P23946 22-247): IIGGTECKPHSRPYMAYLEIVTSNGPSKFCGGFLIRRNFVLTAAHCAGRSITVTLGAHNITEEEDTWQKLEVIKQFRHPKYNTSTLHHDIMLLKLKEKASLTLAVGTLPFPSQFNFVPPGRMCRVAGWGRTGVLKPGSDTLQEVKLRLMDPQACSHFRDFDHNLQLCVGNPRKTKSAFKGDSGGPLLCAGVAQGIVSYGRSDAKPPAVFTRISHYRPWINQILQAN
Description: (§1) The digestion was measured using the enzyme-linked immunosorbent assay (ELISA) kit (R&D Systems). […] As the ELISA detection provided quantitative measurement and high-throughput screening capacity, it was used for the following experiments.
Next, activities of the recombinant chymase and COMPOUND NO. 3 were examined with endogenous IL-18.
The dose effects of the chymase inhibitors on IL-18 levels were also examined. […] The IL-18 levels were measured using ELISA as described above.
Next, the effects of various serine proteases and inhibitors on IL-18 levels were examined.

[2] = tested on: endogenous chymase activity and other proteases activity in saliva samples; experiment: IL-18 levels in saliva samples incubated with protease inhibitors, no added chymase (ELISA); type: biochemical, human; conditions: 37° C., 1 hour
Description: To determine the effects of additional protease inhibitors on the endogenous IL-18 levels, the pan protease inhibitors and/or COMPOUND No. 3 were incubated with saliva samples at 37° C. for 1 hour. […] Ten μM of COMPOUND NO.

proteinase 3 = target: T2, proteinase 3 (Homo sapiens, UniProt P24158); experiment: reversal of proteinase 3-induced reduction of IL-18 in saliva (ELISA); type: biochemical; conditions: proteinase 3 2 μg/ml + compound 1 μM; 37° C., 1 h
T2 sequence (P24158 28-248): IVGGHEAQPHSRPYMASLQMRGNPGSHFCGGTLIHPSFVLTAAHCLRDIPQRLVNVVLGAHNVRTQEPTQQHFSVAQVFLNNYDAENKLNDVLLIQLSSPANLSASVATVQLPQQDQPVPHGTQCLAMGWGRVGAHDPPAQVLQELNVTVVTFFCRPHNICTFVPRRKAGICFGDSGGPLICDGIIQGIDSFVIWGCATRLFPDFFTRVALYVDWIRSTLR
Description: (§2) Next, the effects of various serine proteases and inhibitors on IL-18 levels were examined. The saliva samples were incubated with vehicle (DMSO/PBS), chymase (2 μg/ml), COMPOUND No. 3 (1 μM), chymase (2 μg/ml)+COMPOUND No. 3 (1 μM), chymostatin (3 μg/ml), chymase (2 μg/ml)+chymostatin (3 μg/ml), cathepsin G (2 μg/ml), cathepsin G (2 μg/ml)+COMPOUND No. 3 (1 μM), elastase (0.5 μg/ml), elastase (0.5 μg/ml)+COMPOUND No. 3 (1 μM), proteinase 3 (2 μg/ml), proteinase 3 (2 μg/ml)+COMPOUND No. 3 (1 μM), tryptase (1 μg/ml), or tryptase (1 μg/ml)+COMPOUND 3 (1 μM) at 37° C. for 1 h. […] In contrast, cathepsin G and elastase had no effect on IL-18 levels. […] However, the reduction of IL-18 by these two enzymes was not reversed by COMPOUND No. 3.

tryptase = experiment: reversal of tryptase-induced reduction of IL-18 in saliva (ELISA); type: biochemical; conditions: tryptase 1 μg/ml + compound 1 μM; 37° C., 1 h
Description: as §2

endogenous IL-18 = experiment: effect of serine proteases on endogenous IL-18 levels in saliva samples (ELISA); type: biochemical, human; conditions: 37° C.; for effect of serine protease on IL-18 levels: saliva, 1 h, chymase 2, cathepsin G 2, elastase 0.5, proteinase 3 2, tryptase 1 μg/ml
Description: Next, activities of the recombinant chymase and COMPOUND NO. 3 were examined with endogenous IL-18. One ml of saliva samples were collected from six subjects and incubated with vehicle (DMSO/PBS), chymase (80 nM), and chymase+COMPOUND No. 3 (1 μM) at 37° C. for 3 hr.
To determine the dose effects of the recombinant chymase on IL-18 levels, 1-300 nM of the recombinant chymase were incubated with saliva samples at 37° C. for 1 hr.
as §2

[3] = tested on: recombinant mature human IL-18; experiment: cleavage of recombinant mature human IL-18 by chymase (Western blot, ELISA); type: biochemical; conditions: 37° C.
Description: A recombinant human chymase was generated according to Kervinen et al. (2008). A hundred ng of the recombinant mature human IL-18 (rIL-18, R&D Systems, 614 McKinley Place NE, Minneapolis, Minn. 55413) was incubated with the recombinant chymase (w/w 1:25) in PBS at 37° C. for various time points. The digestion products were separated on a 4-12% gradient gel. Western blot analysis was done with a specific monoclonal antibody against human IL-18. […] The exact cleavage sites were not clear. Without being bound to any theory, the mature IL-18 may be cleaved by the recombinant human chymase into the ˜16 kD fragment which may be further degraded into the ˜12 kD fragment. […] In addition, the chymase-induced cleavage of rIL-18 was both time (FIG. 1A) and dose dependent (FIG. 1B).
as §1

For CP(=O)(O)C(C(=O)N/C=C/c1ccc(F)c(F)c1)c1csc2ccc(Cl)cc12 (stereo not shown) [COMPOUND NO. 1], the “IL-18 levels in saliva compared to the placebo group, 100 mg” value (IL-18 levels in saliva; 100 mg for 14 days) is listed as “similar”, the “IL-18 levels in saliva compared to the placebo group, 600 mg” value (IL-18 levels in saliva; 600 mg for 14 days, p<0.03) is listed as “significant increase” and the “cross activity with other serine proteases” value (other serine proteases) is listed as “little or no cross activity”.

For CC(C)OC(=O)OCOP(=O)(O)C(C(=O)N/C=C/c1cc(Cl)cc(Cl)c1)c1csc2ccc(Cl)cc12 (stereo not shown) [COMPOUND NO. 2], the “dose-dependent reversal of chymase-induced decrease of IL-18 levels” value [1] was “dose-dependently reversed” and the IC50 [1] was 1460 ± 563 nM.

In the case of O=C(N/C=C/c1cc(Cl)cc(Cl)c1)C(c1csc2ccc(Cl)cc12)P(=O)(O)O (stereo not shown) [COMPOUND NO. 3], the “dose-dependent reversal of chymase-induced decrease of IL-18 levels” value [1] is reported as “dose-dependently reversed”, the IC50 [1] is reported as 3600 ± 928 nM and the “reversal of chymase-induced decrease of IL-18 levels, subjects 1-3 and 6” value ([1]; chymase 80 nM + compound 1 μM, 3 hr, subjects 1-3 and 6) is reported as “reversed completely”. For the same molecule, the “reversal of chymase-induced decrease of IL-18 levels, subjects 4 and 5” value ([1]; chymase 80 nM + compound 1 μM, 3 hr, subjects 4 and 5) was “reverted to a large degree”, the “reversal of chymase-induced reduction of IL-18 levels” value [1] was “reversed this reduction” and the “reversal of chymase-induced decrease of IL-18 levels” value ([1]; saliva of six subjects, chymase 80 nM + compound 1 μM, 3 hr) was “reversed or prevented”. For the same molecule, the “reversal of the decrease in IL-18 levels in incubated saliva” value ([2]; 1 or 10 μM) was “reversed some of the decrease”, the “increase of IL-18 levels at 10 μM compared with 1 μM” value [2] was “almost two fold” and the “reversal of proteinase 3-induced reduction of IL-18” value (proteinase 3) was “not reversed”. The “reversal of tryptase-induced reduction of IL-18” value (tryptase) was “not reversed”.

For CC(C)C[C@H](NC(=O)[C@@H](NC(=O)N[C@@H](Cc1ccccc1)C(=O)O)[C@@H]1CCN=C(N)N1)C(=O)N[C@H](C=O)Cc1ccccc1 [chymostatin, reference compound], the “reversal of chymase-induced reduction of IL-18 levels” value [1] was “reversed the reduction”.

For elastase, the “effect of serine protease on IL-18 levels” value (shortened to “effect of serine protease”) (endogenous IL-18) was “no effect”.

B1: Proteinase 3: serine protease (protein, UniProt P24158 28-248, looked up)
Myeloblastin: IVGGHEAQPHSRPYMASLQMRGNPGSHFCGGTLIHPSFVLTAAHCLRDIPQRLVNVVLGAHNVRTQEPTQQHFSVAQVFLNNYDAENKLNDVLLIQLSSPANLSASVATVQLPQQDQPVPHGTQCLAMGWGRVGAHDPPAQVLQELNVTVVTFFCRPHNICTFVPRRKAGICFGDSGGPLICDGIIQGIDSFVIWGCATRLFPDFFTRVALYVDWIRSTLR
In the case of B1, the “effect of serine protease” value (endogenous IL-18) is reported as “reduced IL-18 levels significantly”.

B2: cathepsin G: serine protease (protein, UniProt P08311 21-244, looked up)
Cathepsin G: IIGGRESRPHSRPYMAYLQIQSPAGQSRCGGFLVREDFVLTAAHCWGSNINVTLGAHNIQRRENTQQHITARRAIRHPQYNQRTIQNDIMLLQLSRRVRRNRNVNPVALPRAQEGLRPGTLCTVAGWGRVSMRRGTDTLREVQLRVQRDRQCLRIFGSYDPRRQICVGDRRERKAAFKGDSGGPLLCNNVAHGIVSYGKSSGVPPEVFTRVSSFLPWIRTTMRS
With B2 the “effect of serine protease” value (endogenous IL-18) was “no effect”.

B3: recombinant chymase: recombinant human chymase generated according to Kervinen et al. (2008) (protein, UniProt P23946 22-247, looked up)
Chymase: IIGGTECKPHSRPYMAYLEIVTSNGPSKFCGGFLIRRNFVLTAAHCAGRSITVTLGAHNITEEEDTWQKLEVIKQFRHPKYNTSTLHHDIMLLKLKEKASLTLAVGTLPFPSQFNFVPPGRMCRVAGWGRTGVLKPGSDTLQEVKLRLMDPQACSHFRDFDHNLQLCVGNPRKTKSAFKGDSGGPLLCAGVAQGIVSYGRSDAKPPAVFTRISHYRPWINQILQAN
With B3 the “rIL-18 immunoreactivity or levels in the presence of chymase, PBS” value ([3]; 80 nM chymase, 4 mg/ml rIL-18, PBS, 1.5 h, without chymase ~4000) was about 1300 ng/mL, the “rIL-18 immunoreactivity or levels in the presence of chymase, saliva” value ([3]; 80 nM chymase, 4 mg/ml rIL-18, saliva, 1.5 h, without chymase ~3,000) was ~1,000 ng/ml and the “cleavage of mature human IL-18 (Western blot)” value ([3]; 100 ng rIL-18, chymase w/w 1:25, PBS, fragments ~16 and ~12 kD) was “able to cleave”. For the same molecule, the EC50 (endogenous IL-18; 1-300 nM chymase in saliva samples, 1 hr, n=3) was 60.4 ± 15.2 nM, the “effect on immunoreactivity or levels of endogenous IL-18” value (endogenous IL-18; chymase 80 nM, saliva of six subjects, 3 hr) was “decrease” and the “effect of serine protease” value (endogenous IL-18) was “reduced”.
